Measured values published in ChEMBL document CHEMBL3885861, “Open TG-GATES”.

Species on record: Rattus norvegicus
Test: Open TG-GATES - Regimen: Daily Repeat
Format: toxicity, organism-based, Sprague-Dawley
Set-up: regimen Daily Repeat, gender Male, age 6 weeks
Conditions: in vivo, po, 45 mg/kg, route gavage, dose level High; for APTT / Bas / Eos / Fbg / Hb / Ht / Lym / MCH / MCHC / MCV / Mono / Neu / PT / Plat / RBC / Ret / WBC: tissue Blood; for KIDNEY_L / KIDNEY_R / KIDNEY_TOTAL: tissue Kidney; for LIVER: tissue Liver; for A/G / ALP / ALT / AST / BUN / CRE / Ca / Cl / DBIL / GLC / IP / K / LDH / Na / PL / RALB / TBIL / TC / TG / TP / gamma-GTP: tissue Plasma

CC(=N)S [THIOACETAMIDE]
TERMINAL_BW (72 h, time 3 day): 211.8 g
APTT (72 h, time 3 day): 17.5 s
Bas (72 h, time 3 day): 0%
Eos (72 h, time 3 day): 1.4%
Fbg (72 h, time 3 day): 296 mg/dL
Hb (72 h, time 3 day): 14.4 g/dL
Ht (72 h, time 3 day): 44%
Lym (72 h, time 3 day): 75.4%
MCH (72 h, time 3 day): 20.3 pg
MCHC (72 h, time 3 day): 32.8%
MCV (72 h, time 3 day): 62.1 fL
Mono (72 h, time 3 day): 9.2%
Neu (72 h, time 3 day): 14%
PT (72 h, time 3 day): 12.4 s
Plat (72 h, time 3 day): 112.5 x10_4/uL
RBC (72 h, time 3 day): 711.2 x10_4/ul
Ret (72 h, time 3 day): 4.8%
WBC (72 h, time 3 day): 144.4 x10_2/uL
KIDNEY_L (72 h, time 3 day): 1 g
KIDNEY_R (72 h, time 3 day): 1.1 g
KIDNEY_TOTAL (72 h, time 3 day): 2.1 g
LIVER (72 h, time 3 day): 12.3 g
A/G (72 h, time 3 day): 1.8
ALP (72 h, time 3 day): 923.2 IU/L
ALT (72 h, time 3 day): 47.8 IU/L
AST (72 h, time 3 day): 179.6 IU/L
BUN (72 h, time 3 day): 16.4 mg/dL
CRE (72 h, time 3 day): 0.6 mg/dL
Ca (72 h, time 3 day): 10.9 mg/dL
Cl (72 h, time 3 day): 104.2 meq/L
DBIL (72 h, time 3 day): 0.086 mg/dL
GLC (72 h, time 3 day): 174.8 mg/dL
IP (72 h, time 3 day): 8.1 mg/dL
K (72 h, time 3 day): 5.1 meq/L
LDH (72 h, time 3 day): 338.2 IU/L
Na (72 h, time 3 day): 136 meq/L
PL (72 h, time 3 day): 189.8 mg/dL
RALB (72 h, time 3 day): 3.7 g/dL
TBIL (72 h, time 3 day): 0.3 mg/dL
TC (72 h, time 3 day): 102 mg/dL
TG (72 h, time 3 day): 115.4 mg/dL
TP (72 h, time 3 day): 5.8 g/dL
gamma-GTP (72 h, time 3 day): 2.2 IU/L
TERMINAL_BW ([…], time 7 day): 217.5 g
TERMINAL_BW ([…], time 14 day): 249.4 g
TERMINAL_BW ([…], time 28 day): 277.2 g
APTT ([…], time 7 day): 16.5 s
Bas ([…], time 7 day): 0%
Eos ([…], time 7 day): 1%
Fbg ([…], time 7 day): 236 mg/dL
Hb ([…], time 7 day): 14.7 g/dL
Ht ([…], time 7 day): 44%
Lym ([…], time 7 day): 81%
MCH ([…], time 7 day): 20.1 pg
MCHC ([…], time 7 day): 33.5%
MCV ([…], time 7 day): 60 fL
Mono ([…], time 7 day): 5.6%
Neu ([…], time 7 day): 12.6%
PT ([…], time 7 day): 14.3 s
Plat ([…], time 7 day): 159.2 x10_4/uL
RBC ([…], time 7 day): 734.2 x10_4/ul
Ret ([…], time 7 day): 2%
WBC ([…], time 7 day): 180.4 x10_2/uL
APTT ([…], time 14 day): 16.7 s
Bas ([…], time 14 day): 0%
Eos ([…], time 14 day): 1%
Fbg ([…], time 14 day): 228.4 mg/dL
Hb ([…], time 14 day): 14.7 g/dL
Ht ([…], time 14 day): 43.7%
Lym ([…], time 14 day): 77.8%
MCH ([…], time 14 day): 19.7 pg
MCHC ([…], time 14 day): 33.5%
MCV ([…], time 14 day): 58.9 fL
Mono ([…], time 14 day): 5.4%
Neu ([…], time 14 day): 16.2%
PT ([…], time 14 day): 14.4 s
Plat ([…], time 14 day): 123.1 x10_4/uL
RBC ([…], time 14 day): 742.6 x10_4/ul
Ret ([…], time 14 day): 2.7%
WBC ([…], time 14 day): 176.2 x10_2/uL
APTT ([…], time 28 day): 17.6 s
Bas ([…], time 28 day): 0%
Eos ([…], time 28 day): 0.6%
Fbg ([…], time 28 day): 218 mg/dL
Hb ([…], time 28 day): 15.6 g/dL
Ht ([…], time 28 day): 45.4%
Lym ([…], time 28 day): 71.6%
MCH ([…], time 28 day): 18.8 pg
MCHC ([…], time 28 day): 34.5%
MCV ([…], time 28 day): 54.3 fL
Mono ([…], time 28 day): 6.6%
Neu ([…], time 28 day): 21%
PT ([…], time 28 day): 14 s
Plat ([…], time 28 day): 110.9 x10_4/uL
RBC ([…], time 28 day): 835.6 x10_4/ul
Ret ([…], time 28 day): 2.6%
WBC ([…], time 28 day): 183.8 x10_2/uL
KIDNEY_L ([…], time 7 day): 1 g
KIDNEY_R ([…], time 7 day): 1 g
KIDNEY_TOTAL ([…], time 7 day): 2 g
KIDNEY_L ([…], time 14 day): 1.2 g
KIDNEY_R ([…], time 14 day): 1.2 g
KIDNEY_TOTAL ([…], time 14 day): 2.3 g
KIDNEY_L ([…], time 28 day): 1.2 g
KIDNEY_R ([…], time 28 day): 1.2 g
KIDNEY_TOTAL ([…], time 28 day): 2.4 g
LIVER ([…], time 7 day): 11.1 g
LIVER ([…], time 14 day): 12.4 g
LIVER ([…], time 28 day): 14.3 g
A/G ([…], time 7 day): 1.9
ALP ([…], time 7 day): 946.4 IU/L
ALT ([…], time 7 day): 23.4 IU/L
AST ([…], time 7 day): 47 IU/L
BUN ([…], time 7 day): 18.4 mg/dL
CRE ([…], time 7 day): 0.5 mg/dL
Ca ([…], time 7 day): 10.4 mg/dL
Cl ([…], time 7 day): 105.4 meq/L
DBIL ([…], time 7 day): 0.026 mg/dL
GLC ([…], time 7 day): 164.2 mg/dL
IP ([…], time 7 day): 7.3 mg/dL
K ([…], time 7 day): 4.8 meq/L
LDH ([…], time 7 day): 192.8 IU/L
Na ([…], time 7 day): 136 meq/L
PL ([…], time 7 day): 137 mg/dL
RALB ([…], time 7 day): 3.6 g/dL
TBIL ([…], time 7 day): 0.2 mg/dL
TC ([…], time 7 day): 69.8 mg/dL
TG ([…], time 7 day): 57.2 mg/dL
TP ([…], time 7 day): 5.5 g/dL
gamma-GTP ([…], time 7 day): 2 IU/L
A/G ([…], time 14 day): 2.3
ALP ([…], time 14 day): 1052 IU/L
ALT ([…], time 14 day): 26 IU/L
AST ([…], time 14 day): 67 IU/L
BUN ([…], time 14 day): 18.6 mg/dL
CRE ([…], time 14 day): 0.6 mg/dL
Ca ([…], time 14 day): 10.2 mg/dL
Cl ([…], time 14 day): 105 meq/L
DBIL ([…], time 14 day): 0.08 mg/dL
GLC ([…], time 14 day): 165.8 mg/dL
IP ([…], time 14 day): 7.3 mg/dL
K ([…], time 14 day): 4.3 meq/L
LDH ([…], time 14 day): 161 IU/L
Na ([…], time 14 day): 135 meq/L
PL ([…], time 14 day): 154 mg/dL
RALB ([…], time 14 day): 3.7 g/dL
TBIL ([…], time 14 day): 0.3 mg/dL
TC ([…], time 14 day): 74.4 mg/dL
TG ([…], time 14 day): 83 mg/dL
TP ([…], time 14 day): 5.3 g/dL
gamma-GTP ([…], time 14 day): 2.4 IU/L
A/G ([…], time 28 day): 1.9
ALP ([…], time 28 day): 1032 IU/L
ALT ([…], time 28 day): 31.2 IU/L
AST ([…], time 28 day): 76 IU/L
BUN ([…], time 28 day): 20.8 mg/dL
CRE ([…], time 28 day): 0.6 mg/dL
Ca ([…], time 28 day): 9.9 mg/dL
Cl ([…], time 28 day): 106 meq/L
DBIL ([…], time 28 day): 0.2 mg/dL
GLC ([…], time 28 day): 148.8 mg/dL
IP ([…], time 28 day): 6.3 mg/dL
K ([…], time 28 day): 4.4 meq/L
LDH ([…], time 28 day): 195.4 IU/L
Na ([…], time 28 day): 134 meq/L
PL ([…], time 28 day): 138.4 mg/dL
RALB ([…], time 28 day): 3.5 g/dL
TBIL ([…], time 28 day): 0.3 mg/dL
TC ([…], time 28 day): 61.4 mg/dL
TG ([…], time 28 day): 20.8 mg/dL
TP ([…], time 28 day): 5.4 g/dL
gamma-GTP ([…], time 28 day): 6 IU/L
